Results reported in patent US5776929A, “Benzodiazepine derivative” (Shionogi & Co., Ltd., priority 1993, dated 1998).

Key:
[1] = target: T1, gastrin receptor (Cavia porcellus, UniProt H0VZC5); assay: Gastrin receptor antagonism, displacement of 125I-labeled gastrin, gastric (fundic) gland cells; assay type: binding, guinea pig (male Hartley); conditions: guinea pig gastric glands, 125I-gastrin 0.2 nM, 30 min, 25 °C; read-out: Receptor Gastrin (IC50)
T1 construct: stomach was extracted from each animal immediately, from which gastric glands were prepared; from tissue; host or cells: gastric (fundic) glands of male Hartley guinea pigs
T1 sequence (H0VZC5 1-426): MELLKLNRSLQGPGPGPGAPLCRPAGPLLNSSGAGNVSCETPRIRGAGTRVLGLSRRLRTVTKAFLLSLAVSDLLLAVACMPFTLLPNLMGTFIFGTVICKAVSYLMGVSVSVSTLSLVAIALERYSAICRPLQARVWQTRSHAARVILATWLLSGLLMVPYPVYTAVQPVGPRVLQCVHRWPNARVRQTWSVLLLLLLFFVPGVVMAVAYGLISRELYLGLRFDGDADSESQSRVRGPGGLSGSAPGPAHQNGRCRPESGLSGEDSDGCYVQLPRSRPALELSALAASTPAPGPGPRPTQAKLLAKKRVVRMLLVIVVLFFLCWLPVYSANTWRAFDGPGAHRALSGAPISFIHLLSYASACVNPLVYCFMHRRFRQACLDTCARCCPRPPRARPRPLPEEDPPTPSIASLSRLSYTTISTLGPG
Method: (§1) Male Hartley guinea pig (450-600 g) or male ddY mouse (24-30 g) were used.
(1) Gastrin Receptor Antagonism
Preparation of gastric glands:
Male Hartley guinea pigs (450-600 g) were killed by bleeding and stomach was extracted from each animal immediately, from which gastric glands were prepared.
Preparation of test compounds and procedures of displacing assay
A 1M solution of a compound to be tested in DMSO is prepared and diluted with 50% DMSO to obtain a ten-fold dilution series.
The mixture is incubated for 30 min at 25° C., centrifuged at 2000 rpm for 5 min and the supernatant is removed by aspiration. To the pellet is added ice-cooled incubation buffer and mixed gently, followed by an immediate centrifugation and removal of the supernatant by aspiration. The radioactivity is counted on gamma counter. The same procedure was repeated using 50% DMSO solution or human gastrin I (final concentration, 2 μM) instead of a solution of test compound so as to obtain the control value regarding total binding or the value regarding non-specific binding, respectively. […]
(§2) specific binding of control=total binding (cpm)-non-specific binding (cpm); and specific binding of test compound=[…]-non-specific binding (cpm).

[2] = target: T2, CCK-B receptor (Mus musculus, UniProt P56481); assay: CCK-B receptor antagonism, displacement of [3H]CCK-8, cerebral cortex crude membrane; assay type: binding, mouse (male ddY); conditions: mouse cerebral cortex membrane, [3H]CCK-8 1 nM, 90 min, 25 °C; read-out: Receptor CCK-B (IC50)
T2 construct: crude membrane specimen from mouse cerebral cortex; from tissue; host or cells: cerebral cortex of male ddY mice, crude membranes
T2 sequence (P56481 1-453): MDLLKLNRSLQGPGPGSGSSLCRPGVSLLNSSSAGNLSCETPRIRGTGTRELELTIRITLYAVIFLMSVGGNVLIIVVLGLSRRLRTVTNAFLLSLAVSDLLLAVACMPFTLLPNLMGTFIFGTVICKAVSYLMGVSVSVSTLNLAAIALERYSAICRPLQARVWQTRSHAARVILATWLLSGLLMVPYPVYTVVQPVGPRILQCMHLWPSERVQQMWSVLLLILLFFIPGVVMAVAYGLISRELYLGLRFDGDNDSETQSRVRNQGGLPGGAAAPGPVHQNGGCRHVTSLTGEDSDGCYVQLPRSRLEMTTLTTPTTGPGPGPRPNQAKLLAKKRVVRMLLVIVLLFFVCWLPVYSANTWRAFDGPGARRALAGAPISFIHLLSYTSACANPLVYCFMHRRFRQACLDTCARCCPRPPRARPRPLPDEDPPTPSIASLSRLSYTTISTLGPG
Method: as §1
(§3) (2) CCK-A Receptor Antagonism and CCK-B Receptor Antagonism
(§4) Preparation of CCK receptor preparations
(§5) Male ddY mice (24 to 30 g) were killed by decapitation and cerebral cortex (CCK-B) and pancreas (CCK-A) were extracted immediately. Each of cerebral cortex and pancreas was mixed with 50 mM Tris-HCl buffer (pH 7.4) and homogenized with a teflon-glass homogenizer and polytron homogenizer to obtain crude membrane specimens.
(§6) Preparation of test compounds and procedures of displacing assay A 1M solution of a compound to be tested in DMSO is prepared and diluted with 50% DMSO to obtain a ten-fold dilution series.
(§7) The reaction is initiated by the addition of crude membrane specimen to solutions of different concentration each containing [^3 H]CCk-8 (final concentration, 1 nM). The mixture is incubated for 90 min at 25° C., filtered through glass filter with aspiration and washed with a cooled 50 mM Tris buffer. After the addition of Aquazol-2 cocktail the radioactivity is counted. The same procedure was repeated using 50% DMSO solution or Ceruletide (final concentration, 1 μM) instead of a solution of test compound so as to obtain the control value regarding total binding or the value regarding non-specific binding, respectively. […]
as §2

[3] = target: T3, CCK-A receptor (Mus musculus, UniProt O08786); assay: CCK-A receptor antagonism, displacement of [3H]CCK-8, pancreas crude membrane; assay type: binding, mouse (male ddY); conditions: mouse pancreas membrane, [3H]CCK-8 1 nM, 90 min, 25 °C; read-out: Receptor CCK-A (IC50)
T3 construct: crude membrane specimen from mouse pancreas; from tissue; host or cells: pancreas of male ddY mice, crude membranes
T3 sequence (O08786 1-436): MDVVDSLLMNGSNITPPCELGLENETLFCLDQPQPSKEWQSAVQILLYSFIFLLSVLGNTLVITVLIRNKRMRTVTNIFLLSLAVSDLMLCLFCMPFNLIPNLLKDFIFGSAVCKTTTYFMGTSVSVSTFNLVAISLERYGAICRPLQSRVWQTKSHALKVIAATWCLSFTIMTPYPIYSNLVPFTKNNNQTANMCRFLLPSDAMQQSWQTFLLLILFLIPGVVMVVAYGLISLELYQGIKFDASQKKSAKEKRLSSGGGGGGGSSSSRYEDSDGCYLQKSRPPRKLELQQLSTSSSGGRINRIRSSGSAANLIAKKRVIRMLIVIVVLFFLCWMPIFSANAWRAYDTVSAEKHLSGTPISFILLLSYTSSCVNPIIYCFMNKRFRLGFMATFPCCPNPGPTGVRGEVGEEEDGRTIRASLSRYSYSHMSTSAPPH
Method: as §1, §3, §4, §5, §6, §7, §2

[4] = tested on: gastric acid secretion; assay: Inhibitory effect on gastric acid secretion by Schild method (pentagastrin-stimulated); assay type: in vivo, rat (male Sprague Dawley); conditions: intraduodenal, rat, read-out: Inhibitory Effect on acid secretion (Schild method), percent inhibition
Text: Evaluation of Inhibitory Effect on Gastric Acid Secretion by Schild Method
Twenty four hour starved (ad libitum for water) male Sprague Dawley rats (8-week-old) were anesthetized with urethane (1.5 g/kg S.C.) and kept breathing with esophagus cannulas. After laparotomy, esophagus cannulas were inserted orally up to proventriculus and ligated around gastric cardiac. Perfusion cannulas were inserted from duodenum into stomach and ligated around pylorus. Another cannulas were placed into duodenum and ligated for administration of drug. After sutra of abdomen, stomach was perfused via the esophagus cannulas with physiological saline (37° C.) while collecting perfusate for a 15 min interval. The perfusate was subjected to titration with 0.001 N NaOH solution to determine the acidity. When the basal acid secretion became stable, pentagastrin ([…]) was administered in a sustained manner via common carotid vein for about 90 min until the acid secretion reached approximately the highest level, when a test compound (0.5% M.C. suspension) was administered into duodenum through cannulas. The perfusate was collected for a 15 min interval to monitor the acid secretion for 90 min. The percent inhibition was calculated as follows:
Percent inhibition (%)=100×(A-B)/(C-B)
A: the minimum value of total acidity observed after the administration of a test compound;
B: the total acidity obtained immediately before the administration of pentagastrin; and
C: the total acidity obtained immediately before the administration of a test compound.

Row | Structure (SMILES) | IC50 [1] [nM] | IC50 [2] [nM] | IC50 [3] [nM] | inhibition in vivo at 0.3 mg/kg [4] [%] | inhibition in vivo at 0.1 mg/kg ([4]; 0.1 mg/kg) [%] | inhibition in vivo at 0.5 mg/kg ([4]; 0.5 mg/kg) [%]
1 | CCOC(=O)CSc1cccc(NC(=O)NC2C(=O)N(CC(=O)C3CC3)c3ccccc3N(CC(=O)C3CC3)C2=O)c1 [Compound 17-viii, 1,5-Bis-(cyclopropylcarbonylmethyl)-3-(N'-(m-(carboethoxymethylthio)phenyl)ureido)-1H-1,5-benzodiazepine-2,4(3H,5H)-dione] | 2 | 6 | 460 | 76 | – | –
2 | O=C(Nc1cccc(-c2nc(=O)o[nH]2)c1)NC1C(=O)N(CC(=O)C2CC2)c2ccccc2N(CC(=O)C2CC2)C1=O [Compound 17-x, 1,5-Bis-(cyclopropylcarbonylmethyl)-3-(N'-(m-(5-keto-1,2,4-oxadiazol-3-yl)phenyl)ureido)-1H-1,5-benzodiazepine-2,4(3H,5H)-dione] | 1 | 3 | 360 | 70 | – | –
3 | CC(=O)NS(=O)(=O)c1cccc(NC(=O)NC2C(=O)N(CC(=O)C3CC3)c3ccccc3N(CC(=O)C3CC3)C2=O)c1 [Compound 17-xi, 1,5-Bis-(cyclopropylcarbonylmethyl)-3-(N'-(m-(acetylsulfamoyl)phenyl)ureido)-1H-1,5-benzodiazepine-2,4(3H,5H)-dione] | 6 | 115 | > 10000 | 39 | – | –
4 | COC(=O)Cc1cccc(NC(=O)NC2C(=O)N(CC(=O)C3CC3)c3ccccc3N(CC(=O)C3CC3)C2=O)c1 [Compound 17-xii, 1,5-Bis-(cyclopropylcarbonylmethyl)-3-(N'-(m-(carbomethoxymethyl)phenyl)ureido)-1H-1,5-benzodiazepine-2,4(3H,5H)-dione] | 15 | 48 | 2500 | 48 | – | –
5 | O=C(O)Cc1cccc(NC(=O)NC2C(=O)N(CC(=O)C3CC3)c3ccccc3N(CC(=O)C3CC3)C2=O)c1 [Compound 17-xiii, 1,5-Bis-(cyclopropylcarbonylmethyl)-3-(N'-(m-(carbomethyl)phenyl)ureido)-1H-1,5-benzodiazepine-2,4(3H,5H)-dione] | 2 | 7 | 4800 | 21 | – | –
6 | O=C(Nc1cccc(SCc2nnn[nH]2)c1)NC1C(=O)N(CC(=O)C2CC2)c2ccccc2N(CC(=O)C2CC2)C1=O [Compound 17-xvii] | < 1 | 1 | 1300 | – | 30 | –
7 | O=C(Nc1cccc(-c2nnn[nH]2)c1)NC1C(=O)N(CC(=O)N2CCCC2)c2ccccc2N(CC(=O)N2CCCC2)C1=O [Compound 18-iv] | 4 | 38 | 3600 | 65 | – | –
8 | O=C(O)Cc1cccc(NC(=O)NC2C(=O)N(CC(=O)N3CCCC3)c3ccccc3N(CC(=O)N3CCCC3)C2=O)c1 [Compound 18-xiii, 1,5-Bis-(pyrrolidinocarbonylmethyl)-3-(N'-(m-(carboxymethyl)phenyl)ureido)-1H-1,5-benzodiazepine-2,4(3H,5H)-dione] | 7 | 29 | 10500 | 26 | – | –
9 | O=C(Nc1cccc(-c2nnn[nH]2)c1)NC1C(=O)N(CC2CC2)c2ccccc2N(CC2CC2)C1=O [Compound 19-iv, 1,5-Bis-(cyclopropylmethyl)-3-(N'-(m-tetrazolylphenyl)ureido)-1H-1,5-benzodiazepine-2,4(3H,5H)-dione] | 6 | 26 | 2600 | – | – | 58
10 | O=C(Nc1cccc(-c2nnn[nH]2)c1)NC1C(=O)N(CC(=O)c2cccs2)c2ccccc2N(CC(=O)c2cccs2)C1=O [Compound 20-iv, 1,5-Bis-(thienylcarbonylmethyl)-3-(N'-(m-tetrazolylphenyl)ureido)-1H-1,5-benzodiazepine-2,4(3H,5H)-dione] | 2 | 3 | 380 | 65 | – | –
